{
  "source": "ChEMBL document CHEMBL5528001",
  "about": "“Synthetic product-based approach toward potential antileishmanial drug development” (Eur J Med Chem, 2024)",
  "key": {"Trypanosoma brucei": {"test_system": "Trypanosoma brucei", "assay": "Antitrypanosomal activity against Trypanosoma brucei assessed as parasite growth inhibition", "type": "functional, organism-based"}, "Leishmania infantum [1]": {"test_system": "Leishmania infantum", "assay": "Antileishmanial activity against Leishmania infantum MON-1 promastigotes assessed as reduction in parasite viability measured after 48 hrs by MTT assay", "type": "functional, organism-based", "conditions": "MON-1, 48 h"}, "HepG2 [2]": {"test_system": "HepG2", "assay": "Antiproliferative activity against human HepG2 cells assessed as reduction in cell growth measured for 72 hrs by MTT assay", "type": "functional, cell-based", "conditions": "HepG2, 72 h"}, "HepG2 [3]": {"test_system": "HepG2", "assay": "Cytotoxicity against human HepG2 cells assessed as reduction in cell growth measured for 48 hrs by MTT assay", "type": "functional"}, "[4]": {"assay": "Cytotoxicity against African green monkey Vero cells assessed as reduction in cell viability measured after 96 hrs by MTS assay", "type": "toxicity, cell-based, Chlorocebus sabaeus"}, "Leishmania donovani [5]": {"test_system": "Leishmania donovani", "assay": "Antileishmanial activity against Leishmania donovani MHOM/IN/95/9515 promastigotes assessed as inhibition of parasite proliferation measured for 48 hrs by resazurin dye-based analysis relative to control", "type": "functional", "set-up": "scale not given: the % may be the effect or the level left"}, "[6]": {"assay": "Cytotoxicity against primary peritoneal mouse macrophages cells assessed as reduction in cell growth measured after 24 hrs by colorimetric assay", "type": "toxicity, cell-based, Macrophage"}, "Leishmania major": {"test_system": "Leishmania major", "assay": "Antileishmanial activity against Leishmania major IR-173 promastigotes assessed as inhibition of parasite growth measured for 48 hrs by resazurin staining based analysis", "type": "functional, organism-based", "conditions": "IR-173, 48 h"}, "Leishmania amazonensis [7]": {"test_system": "Leishmania amazonensis", "assay": "Antileishmanial activity against Leishmania amazonensis promastigotes assessed as reduction in parasite viability incubated for 48 hrs by MTT assay", "type": "functional, organism-based"}, "Leishmania infantum [8]": {"test_system": "Leishmania infantum", "assay": "Antileishmanial activity against Leishmania infantum promastigote after 72 hrs by MTT assay", "type": "functional, organism-based"}, "[9]": {"assay": "Cytotoxicity against mouse RAW264.7 cells assessed as reduction in cell viability measured after 48 hrs by MTT assay", "type": "toxicity, cell-based"}, "Leishmania infantum [10]": {"test_system": "Leishmania infantum", "assay": "Antiparasitic activity against Leishmania infantum amastigotes infected in human THP-1 cells assessed as reduction in parasitemia incubated for 72 hrs by high content imaging analysis", "type": "functional, organism-based", "conditions": "THP-1, 72 h"}, "Leishmania donovani [11]": {"test_system": "Leishmania donovani", "assay": "Antileishmanial activity against Leishmania donovani MHOM/ET/67/HU3 promastigotes assessed as inhibition of parasite growth incubated for 72 hrs by MTT assay", "type": "functional, organism-based", "conditions": "MHOM/ET/67/HU3, 72 h"}, "[12]": {"assay": "Selectivity index, ratio of CC50 for cytotoxicity against mouse J774.A1 cells to IC50 for antileishmanial activity against Leishmania amazonensis axenic amastigote assessed as inhibition of parasite growth", "type": "toxicity, cell-based", "conditions": "read-out: Ratio CC50/IC50"}, "Leishmania donovani [13]": {"test_system": "Leishmania donovani", "assay": "Antileishmanial activity against Leishmania donovani axenic amastigotes assessed as reduction in parasite growth measured after 24 hrs by PI staining based analysis", "type": "functional, organism-based"}, "Leishmania donovani [14]": {"test_system": "Leishmania donovani", "assay": "Antileishmanial activity against Leishmania donovani promastigotes assessed as inhibition of cell growth measured after 3 days by resazurin/alamar blue-staining based analysis", "type": "functional, organism-based", "conditions": "72 h"}, "Leishmania amazonensis [15]": {"test_system": "Leishmania amazonensis", "assay": "Antileishmanial activity against Leishmania amazonensis WHOM/00LTB001 promastigotes assessed as reduction in parasite growth incubated for 72 hrs by resazurin staining based analysis", "type": "functional, organism-based", "conditions": "WHOM/00LTB001, 72 h"}, "[16]": {"assay": "Cytotoxicity against mouse J774.A1 cells assessed as inhibition of cell growth measured for 72 hrs by MTT assay", "type": "toxicity, cell-based"}, "Leishmania donovani [17]": {"test_system": "Leishmania donovani", "assay": "Antileishmanial activity against Leishmania donovani promastigotes assessed as inhibition of parasite growth", "type": "functional, organism-based"}, "Leishmania donovani [18]": {"test_system": "Leishmania donovani", "assay": "Antileishmanial activity against Leishmania donovani amastigotes assessed as inhibition of parasite growth", "type": "functional, organism-based"}, "Leishmania amazonensis [19]": {"test_system": "Leishmania amazonensis", "assay": "Antileishmanial activity against Leishmania amazonensis MHOM/BR/1989/166MJO promastigotes infected in mouse peritoneal macrophage assessed as inhibition of parasite growth measured for 24 hrs by MTT assay", "type": "functional, organism-based", "conditions": "Peritoneal macrophage cell"}, "Leishmania infantum [20]": {"test_system": "Leishmania infantum", "assay": "Antileishmanial activity against Leishmania infantum MCAN/ES/ 89/IPZ229/1/89 axenic amastigotes assessed as reduction in parasite viability treated for 48 hrs by PI staining based flow cytometry", "type": "functional, organism-based", "conditions": "MCAN/ES/89/IPZ229/1/89, 48 h"}, "Leishmania donovani [21]": {"test_system": "Leishmania donovani", "assay": "Antileishmanial activity against Leishmania donovani S1 promastigotes assessed as parasite growth inhibition incubated for 72 hrs by Alamar blue assay", "type": "functional, organism-based", "conditions": "S1, 72 h"}, "Leishmania amazonensis [22]": {"test_system": "Leishmania amazonensis", "assay": "Antileishmanial activity against Leishmania amazonensis MHOM/BR/71973/M2269 promastigotes assessed as reduction in parasite viability measured for 48 hrs PI staining based flow cytometry analysis", "type": "functional, organism-based", "conditions": "MHOM/BR/71973, 48 h"}, "Leishmania infantum [23]": {"test_system": "Leishmania infantum", "assay": "Antileishmanial activity against Leishmania infantum MHOM/BR/1972/BH46 promastigotes assessed as reduction in parasite viability measured for 48 hrs by PI staining based flow cytometry analysis", "type": "functional, organism-based", "conditions": "MHOM/BR/1972/BH46, 48 h"}, "Leishmania infantum [24]": {"test_system": "Leishmania infantum", "assay": "Antileishmanial activity against Leishmania infantum MHOM/BR/1972/BH46 amastigotes assessed as reduction in cell viability measured for 48 hrs by PI staining based flow cytometry analysis", "type": "functional, organism-based", "conditions": "MHOM/BR/1972/BH46, 48 h"}, "Leishmania amazonensis [25]": {"test_system": "Leishmania amazonensis", "assay": "Antileishmanial activity against Leishmania amazonensis promastigotes assessed as reduction in parasite viability after 72 hrs by CCK-8 assay", "type": "functional, organism-based"}, "Leishmania braziliensis": {"test_system": "Leishmania braziliensis", "assay": "Antileishmanial activity against Leishmania braziliensis promastigotes assessed as reduction in parasite viability after 72 hrs by CCK-8 assay", "type": "functional, organism-based"}},
  "data": [
    {"smiles": "CCCc1cn(CCN2CCN(C(=O)c3c(C)nc4ccc(C)cn34)CC2)nn1", "values": [
      {"measurement": "IC50", "setting": "Trypanosoma brucei", "result": 0.72, "unit": "µM"}
    ]},
    {"smiles": "CCOC(=O)c1cc2c([nH]c3ccccc32)c(-c2cn(-c3ccccc3)nn2)n1", "values": [
      {"measurement": "EC50", "setting": "Leishmania infantum [1]", "result": 4.8, "unit": "µM"},
      {"measurement": "EC50", "setting": "HepG2 [2]", "result": 13.6, "unit": "µM"},
      {"measurement": "CC50", "setting": "HepG2 [3]", "result": "> 200", "unit": "µM"}
    ]},
    {"smiles": "O=C(Cn1cnc2cc(Cl)ccc2c1=O)n1cnc2cc(Cl)ccc2c1=O", "values": [
      {"measurement": "IC50 at 96 h", "setting": "[4]", "result": 0.03, "unit": "µM"},
      {"measurement": "Activity", "setting": "Leishmania donovani [5]", "result": 29, "unit": "%"}
    ]},
    {"smiles": "CCCCCCCCCCn1cc(CNCCNc2ccnc3cc(Cl)ccc23)nn1", "values": [
      {"measurement": "CC50 at 24 h", "setting": "[6]", "result": 18.2, "unit": "µM"},
      {"measurement": "IC50", "setting": "Leishmania major", "result": 0.08, "unit": "µM"}
    ]},
    {"smiles": "O=C(CCc1ccc(O)c(O)c1)O[C@H](Cc1ccc(O)cc1)C(=O)O", "values": [
      {"measurement": "IC50", "setting": "Leishmania amazonensis [7]", "result": 19, "unit": "µM"}
    ]},
    {"smiles": "O=C(/C=C/c1ccc(F)cc1)c1ccccc1Cl", "values": [
      {"measurement": "IC50", "setting": "Leishmania infantum [8]", "result": 74.1, "unit": "µM"},
      {"measurement": "CC50 at 48 h", "setting": "[9]", "result": 479, "unit": "µM"}
    ]},
    {"smiles": "CCOC(=O)c1cc2c([nH]c3ccccc32)c(-c2cc3ccccc3n3nnnc23)n1", "values": [
      {"measurement": "EC50", "setting": "Leishmania infantum [1]", "result": 3.36, "unit": "µM"},
      {"measurement": "EC50", "setting": "HepG2 [2]", "result": 10.2, "unit": "µM"},
      {"measurement": "CC50", "setting": "HepG2 [3]", "result": 27.9, "unit": "µM"}
    ]},
    {"smiles": "Cn1c(=O)c2c(c3ccccc31)OC(C)(C)[C@H]1CC[C@@](C)(O)[C@H](Cl)[C@H]21", "values": [
      {"measurement": "IC50", "setting": "Leishmania infantum [10]", "result": "> 6.25", "unit": "µM"}
    ]},
    {"smiles": "CC(=O)Oc1ccc(CN2CNC(=O)C=N2)cc1C1OC(c2cccc(Cl)c2)=NN1C(C)=O", "note": "(stereo unspecified)", "values": [
      {"measurement": "IC50", "setting": "Leishmania donovani [11]", "result": 8.98, "unit": "µM"},
      {"measurement": "selectivity ratio", "setting": "[12]", "result": 2.4},
      {"measurement": "IC50", "setting": "Leishmania donovani [13]", "result": 6.05, "unit": "µM"}
    ]},
    {"smiles": "O=c1c2ccccc2nc(/C=C/c2ccc([N+](=O)[O-])cc2)n1-c1ccccc1", "values": [
      {"measurement": "IC50", "setting": "Leishmania donovani [14]", "result": 0.02, "unit": "µM"}
    ]},
    {"smiles": "CCc1ccc(NC(=S)N/N=C/c2c[nH]c3c(C)cc(Br)cc23)cc1", "values": [
      {"measurement": "IC50", "setting": "Leishmania amazonensis [15]", "result": 12.3, "unit": "µM"},
      {"measurement": "CC50 at 72 h", "setting": "[16]", "result": 53.2, "unit": "µM"}
    ]},
    {"smiles": "Cc1cc(O)c(C(=O)Nc2ccccc2)c(=O)n1Cc1ccc(F)cc1", "values": [
      {"measurement": "IC50", "setting": "Leishmania donovani [17]", "result": 55, "unit": "µM"},
      {"measurement": "IC50", "setting": "Leishmania donovani [18]", "result": 55.8, "unit": "µM"}
    ]},
    {"smiles": "COc1cc(C(=O)/C=C/c2ccc([N+](=O)[O-])cc2)c(C(C)=O)c2c(OC)cccc12", "values": [
      {"measurement": "IC50", "setting": "Leishmania amazonensis [19]", "result": 18.5, "unit": "µM"}
    ]},
    {"smiles": "CC1(C)Oc2c(c(=O)[nH]c3ccccc23)[C@H]2[C@@H](Cl)[C@](C)(O)CC[C@@H]21", "values": [
      {"measurement": "IC50", "setting": "Leishmania infantum [20]", "result": 8.1, "unit": "µM"}
    ]},
    {"smiles": "COc1cccc2c1O/C(=C(/C)c1ncc([N+](=O)[O-])[nH]1)C2=O", "values": [
      {"measurement": "IC50", "setting": "Leishmania donovani [21]", "result": 0.016, "unit": "µM"}
    ]},
    {"smiles": "C=CCc1cc(OC)c2oc(=O)c(C(=O)c3ccccc3)cc2c1", "values": [
      {"measurement": "IC50", "setting": "Leishmania amazonensis [22]", "result": 82, "unit": "µM"},
      {"measurement": "IC50", "setting": "Leishmania infantum [23]", "result": 26.7, "unit": "µM"},
      {"measurement": "IC50", "setting": "Leishmania infantum [24]", "result": 18, "unit": "µM"}
    ]},
    {"smiles": "COc1cc(OC)c(C(=O)/C=C/c2cccc(C)c2)c([N+](=O)[O-])c1", "values": [
      {"measurement": "EC50", "setting": "Leishmania amazonensis [25]", "result": 0.42, "unit": "µM"},
      {"measurement": "EC50", "setting": "Leishmania braziliensis", "result": 1.45, "unit": "µM"}
    ]}
  ]
}
